Laboratory results as given in patent EP0513000B1, “MRI IMAGE ENHANCEMENT OF BONE AND RELATED TISSUE USING COMPLEXES OF PARAMAGNETIC CATIONS AND POLYPHOSPHONATE LIGANDS” (CONCAT LTD., priority 1989, dated 1991).

Columns and labels:
[1] = Relative equilibrium constant measurements (competition with EHPG for Fe(III)); type: physicochemical; conditions: 0.25M phosphate buffer at pH 7.2, heated overnight at 100°C, TLC and colour
Procedure: The highly colored Fe(III) complex of EHPG (used for comparison in part E of this example) was dissolved in 0.25 M phosphate buffer at pH 7.2, and an equimolar quantity of N,N',N''-tris(dihydroxyphosphorylmethyl)-1,4,7-triazacyclononane was added. The solution was heated overnight at 100°C.
The reverse experiment was also performed. The Fe(III) complex of N,N',N''-tris(dihydroxyphosphorylmethyl)-1,4,7-triazacyclononane was thus dissolved in 0.25M phosphate buffer at pH 7.2, and an equimolar quantity of EHPG was added. The solution was heated overnight at 100°C.

Water solubility = type: physicochemical; conditions: read-out: soluble in water at concentrations
[2] = Stability: TLC before and after heating; type: physicochemical; conditions: heating at 100°C for two hours
Procedure: TLC was performed on test species A and D, both before and after heating at 100°C for two hours.

mice = test: Toxicity after intravenous administration to mice, two-week observation; type: in vivo; conditions: for Survived?: mice, intravenous, alive at end of two-week period
Procedure: Physiological salts of the various ligand/metal cation complexes described herein were administered intravenously to mice. […] The mice were considered to have "survived" administration of each agent if they were alive at the end of the two-week period.

[3] = In vivo distribution of radioisotopically labeled analogs (radioassay of tissues); set-up: species or system mice; conditions: radioisotope analog; for concentration of agent in brain: within the first hour
Procedure: (§1) The resulting complexes were subjected to radiochromatography to insure acceptable radiopurity and identity with the parent complexes. They were then administered intravenously to mice in order to measure in vivo distribution and whole body clearance. The location of the test species in the mice's bodies and the rate at which the test species were cleared from the mice's bodies after administration were determined by radioassay of tissues and whole body counting, both performed by conventional gamma ray counting techniques. Concentration of activity in tissues was determined as activity per gram of tissue, and whole body counts were expressed as the percentage of whole body activity at a given time with respect to whole body activity immediately after injection. The results were as follows: • 1. Radioisotopes of Test Species A and B. In vivo distribution. […] By measurements taken one hour after administration, the ratio of the concentration of the test species in bone to that in whole blood was generally over 25:1, while the ratio of their concentration in kidney to that in blood was generally over 10:1. Even after 24 hours, when less than 5% of the administered dose remained in the body (see below), a high ratio of concentration of the test species in bone and kidney to that in blood was maintained. […] Whole Body Clearance. […] Radioisotope of Test species C. In vivo distribution. One hour after administration, the measured bone-to-blood concentration ratio was greater than 4.5:1, and the measured kidney-to-blood ratio was greater than 5.5:1. […] Whole Body Clearance. Within 24 hours of administration, over 95% of the tent species had been cleared from the body. • 3. Radioisotope of Test Species D. In vivo distribution. One hour after administration, the measured bone-to-blood concentration ratio was greater than 6:1, and the measured kidney-to-blood ratio was greater than 10:1. […] Whole Body Clearance.

[4] = Whole body clearance of radioisotopically labeled analogs (whole body counting); type: in vivo; conditions: mice, intravenous, radioisotope analog
Procedure: Radioisotopically labeled analogs of test species selected from those listed above were synthesized, using radioisotopes of Fe(III) (iron-59), Cr(III) (chromium-51) and Gd(III) (gadolinium-153), and employing the general synthesis procedures described above. The resulting complexes were subjected to radiochromatography to insure acceptable radiopurity and identity with the parent complexes. They were then administered intravenously to mice in order to measure in vivo distribution and whole body clearance.
as §1, with “The” for “The resulting complexes were subjected to radiochromatography to insure acceptable radiopurity and identity with the parent complexes. They were then administered intravenously to mice in order to measure in vivo distribution and whole body clearance. The”

[5] = Proton longitudinal relaxivity (1/τ1) measurements; type: physicochemical; conditions: 20 MHz, 0.1 M phosphate buffer at pH 7.2
Procedure: Measurements of proton longitudinal relaxivity (1/τ1) were performed on some of the test species listed above, and compared with those obtained using the following complexes outside the scope of this invention: (i) Gd(III) with diethylenetriamine pentaacetic acid (DTPA), and (ii) Fe(III) with N,N'-ethylenebis[(2-hydroxyphenyl)-glycinate] (EHPG). All measurements were obtained using a Bruckner PC/20 Minispec device operating at 20 MHz. All samples were dissolved in 0.1 M phosphate buffer at pH 7.2.

[6] = within 24 hours of administration

Compound: O=P(O)(O)CN1CCN(CP(=O)(O)O)CCN(CP(=O)(O)O)CC1 [N,N',N''-tris(dihydroxyphosphorylmethyl)-1,4,7-triazacyclononane]
- species present after equimolar ligand was added to Fe(III) complex of EHPG [1]: TLC showed only the presence of the Fe(III) N,N',N''-tris(dihydroxyphosphorylmethyl)-1,4,7-triazacyclononane complex

Compound: O=P(O)(O)CN1CCN(CP(=O)(O)O)CCN(CP(=O)(O)O)CC1 [Test Species A, N,N',N''-tris(dihydroxyphosphorylmethyl)-1,4,7-triazacyclononane]
- solubility (Water solubility): > 500 mg/mL
- TLC before and after heating [2]: A single, chromatographically distinct spot which did not vary as a result of the heating
- Survived? (mice; Dose 11.8mM/kg, Rate 0.4mM/sec/kg): yes
- toxicity observed, versus the single, chromatographically distinct product (mice; preparations made by alternate complexation procedures, containing multiple forms of the complex by TLC): substantially greater
- accumulation of activity in fractured tibia versus contralateral normal tibia ([3]; mice with a tibia broken two to four weeks prior to the study): significantly greater accumulation of activity
- ratio of concentration in bone and kidney to that in blood ([3]; mice, intravenous, after 24 hours): high ratio
- activity in the brain ([3]; mice, intravenous, at all times following administration): very low activity
- concentration of radioactivity in bone and kidneys ([3]; mice, intravenous, within 2 minutes following administration): evidence of concentration of radioactivity in bone and kidneys
- administered dose remained in the body ([4]; after 24 hours): less than 5%
- cleared from the body [4, 6]: over 95%
- route of whole body clearance [4, 6]: almost exclusively through the urine
- proton longitudinal relaxivity relative to the Fe(III) complex of EHPG (times greater) [5]: two to three

Compound: O=P(O)(O)CN1CCN(CP(=O)(O)O)CCN(CP(=O)(O)O)CC1 [Test Species B, N,N',N''-tris(dihydroxyphosphorylmethyl)-1,4,7-triazacyclononane]
- Survived? (mice; Dose 9.8mM/kg, Rate 0.7mM/min/kg): yes

Compound: O=P(O)(O)CCN1CCN(CCP(=O)(O)O)CCN(CCP(=O)(O)O)CC1 [Test Species C, N,N',N''-tris(dihydroxyphosphorylethyl)-1,4,7-triazacyclononane]
- Survived? (mice; Dose 10.0mM/kg, Rate 2.0mM/min/kg): yes
- concentration of agent in brain ([3]; mice, intravenous): very low concentration
- cleared from the body [4, 6]: over 95%

Compound: O=P(O)(O)CN1CCN(CP(=O)(O)O)CCN(CP(=O)(O)O)CC1 [Test Species D, N,N',N''-tris(dihydroxyphosphorylmethyl)-1,4,7-triazacyclononane]
- Survived? (mice; Dose 2.9mM/kg, Rate 0.5mM/sec/kg): yes
- concentration of agent in brain ([3]; mice, intravenous): very low concentration

Compound: O=P(O)(O)CN1CCN(CP(=O)(O)O)CCN(CP(=O)(O)O)CC1 [Test Species E, N,N',N''-tris(dihydroxyphosphorylmethyl)-1,4,7-triazacyclononane]
- Survived? (mice; Dose 2.9mM/kg, Rate 1.1mM/min/kg): yes

Compound: O=P(O)(O)CN1CCN(CP(=O)(O)O)CCN(CP(=O)(O)O)CC1 [Test Species F, N,N',N''-tris(dihydroxyphosphorylmethyl)-1,4,7-triazacyclononane]
- Survived? (mice; Dose 8.0mM/kg, Rate 2.6mM/min/kg): yes

Compound: O=P(O)(O)CN1CCN(CP(=O)(O)O)CCN(CP(=O)(O)O)CC1 [Test Species G, N,N',N''-tris(dihydroxyphosphorylmethyl)-1,4,7-triazacyclononane]
- Survived? (mice; Dose 3.1mM/kg, Rate 0.8mM/min/kg): yes

Compound: Fe(III) complex of N,N',N''-tris(dihydroxyphosphorylmethyl)-1,4,7-triazacyclononane
- species present after equimolar EHPG was added to the Fe(III) complex (reverse experiment) [1]: TLC showed only the presence of the Fe(III) N,N',N''-tris(dihydroxyphosphorylmethyl)-1,4,7-triazacyclononane complex
